Assay results from patent US20230000840A1, “THERAPEUTIC AGENTS AND PROPHYLACTIC AGENTS FOR FUNCTIONAL GASTROINTESTINAL DISORDERS AND XEROSTOMIA” (NIPPON SHINYAKU CO., LTD., priority 2019, published 2023).

Tests used:
ileum = assay: Magnus test: carbachol-induced contraction of isolated rat ileum; conditions: test compound 10 μM, then carbachol 50 nM, 100% = carbachol 1000 nM, 0% = DMSO + carbachol 50 nM, average ± standard error, read-out: Enhancement ratio P of the contraction force
Method: 9- to 15-week-aged SD female rats (Japan SLC, Inc.) were exsanguinated to death by amputation of carotid artery under isoflurane anesthesia. Then, the ileum was removed from each rat, and cut to a length of 2 cm while excising the mesentery and connective tissue, to prepare an intestinal sample. In a Magnus tank, this sample was immersed and suspended in 20 mL of a Krebs solution at 37° C. (118 mM NaCl, 4.7 mM KCl, 2.5 mM CaCl2, 1.2 mM MgSO4, 1.2 mM KH2PO4, 11 mM D-glucose, 20 mM NaHCO3) aerated with a mixed gas of 95% O2 and 5% CO2. Then, a load of 1 g was applied to the sample to stabilize the tension.
One end of the sample was connected to an isotonic transducer (IT-10, Medical Agent), and tension (contraction force) data was imported to a personal computer via Power Lab (registered trademark) (A&D Instruments Limited). Carbachol (Carbamylcholine Chloride, Cat. No. 036-09841, manufactured by FUJIFILM Wako Pure Chemical Industries, Ltd.) was added to the Krebs solution in the Magnus tank such that the final concentration thereof was 1000 nM, and contraction of the sample was checked. A contraction force Tb of the sample at this time was defined as 100%. Then, the Magnus tank was washed with a Krebs solution three times to wash away carbachol, and the Magnus tank was finally filled with 20 mL of a Krebs solution.
Next, dimethyl sulfoxide (DMSO, Cat. No. 13445-74, manufactured by NACALAI TESQUE, INC.) was added to the Krebs solution in the Magnus tank, then carbachol was added to the Krebs solution in the Magnus tank such that the final concentration thereof was 50 nM, and contraction of the sample was checked. A contraction force Ta of the sample at this time was defined as 0%. Then, the Magnus tank was washed with a Krebs solution three times to wash away carbachol and DMSO, and the Magnus tank was finally filled with 20 mL of a Krebs solution. Next, a test compound dissolved in DMSO was added to the Krebs solution in the Magnus tank such that the final concentration thereof was 10 μM, then carbachol was added to the Krebs solution in the Magnus tank such that the final concentration thereof was 50 nM, and contraction of the sample was checked.
As described above, the contraction force Tb of the sample when carbachol was added at a final concentration of 1000 nM was defined as 100%, and the contraction force Ta of the sample when carbachol was added at a final concentration of 50 nM under the condition that DMSO was added first instead of the test compound was defined as 0%. The contraction force of the sample when carbachol was added at a final concentration of 50 nM under the condition that the test compound was added first at a final concentration of 10 μM was denoted by Tc, and an enhancement ratio P (unit: %) of the contraction force by the test compound was calculated according to the following equation (2). The increase in contraction force by the test compound was evaluated on the basis of the enhancement ratio P. The number of cases in each addition group was 3 to 7.
P=100×(Tc−Ta)/(Tb−Ta) (2)

anesthetized mice = assay: Measurement of secreted saliva amount in anesthetized mice; assay type: in vivo, mouse; conditions: for Amount of saliva secreted: urethane-anesthetized male ICR mice, 10 mg/kg intravenous, cotton balls weighed after 30 minutes, average ± standard error
Method: 8-week-aged male ICR mice (Japan SLC, Inc.) were anesthetized with urethane (1650 mg/kg, intraperitoneal administration). After about 1 hour, a test compound or a vehicle (physiological saline containing 10% DMSO (OTSUKA NORMAL SALINE, manufactured by Otsuka Pharmaceutical Factory, Inc.)) was intravenously administered at 10 mg/kg, and immediately after that, one or two absorbent cotton wool balls ([…]) (Roller Cotton (cotton ball) SS, manufactured by Nichiei Co., Ltd.) were inserted into the mouth. The difference between the weight of the absorbent cotton balls after 30 minutes from insertion and the weight of the absorbent cotton balls before insertion was defined as an amount of saliva secreted. At this time, the test compound was dissolved in DMSO and then diluted 10-fold with physiological saline. The administration volumes of the test compound and the vehicle were each set to 5 mL/kg. The experiment was carried out in three parts. The number of cases in each administration group was 3-4.

Row | SMILES | activation at 10 µM (ileum) [%] | Amount of saliva secreted (anesthetized mice) [mg] | Salivation promoting effect (anesthetized mice; urethane-anesthetized mice, dose not given)
1 | COCC1(CN(C)c2cc(-c3cc(F)cc(C(F)(F)F)c3)nc3nc(-c4cnc(N5CCC(F)(C(=O)O)CC5)cn4)[nH]c23)CCC1 [Example 2, 4-Fluoro-1-(5-{5-[3-fluoro-5-(trifluoromethyl)phenyl]-7-[{[1-(methoxymethyl)cyclobutyl]methyl}(methyl)amino]-1H-imidazo[4,5-b]pyridin-2-yl}pyrazin-2-yl)piperidine-4-carboxylic acid] | 61.5 ± 8 | 9.73 ± 3.61 | –
2 | CCOCC1(CN(C)c2cc(-c3cnc(C4CC4)c(C(F)(F)F)c3)nc3nc(-c4cnc(N5CCC(C(=O)O)CC5)cn4)[nH]c23)CCCC1 [Example 8, 1-(5-{5-[6-Cyclopropyl-5-(trifluoromethyl)pyridin-3-yl]-7-[{[1-(ethoxymethyl)cyclopentyl]methyl}(methyl)amino]-1H-imidazo[4,5-b]pyridin-2-yl}pyrazin-2-yl)piperidine-4-carboxylic acid] | 12.4 ± 5.31 | 49.13 ± 11.95 | –
3 | CCOc1ncc(-c2cc(N(C)CC3(COC)CCCC3)c3[nH]c(-c4ccc(N5CCC(C(=O)O)CC5)cc4F)nc3n2)cc1C(F)(F)F [Example 6, 1-(4-{5-[6-Ethoxy-5-(trifluoromethyl)pyridin-3-yl]-7-[{[1-(methoxymethyl)cyclopentyl]methyl}(methyl)amino]-1H-imidazo[4,5-b]pyridin-2-yl}-3-fluorophenyl)piperidine-4-carboxylic acid] | 26.7 ± 5.04 | 11.37 ± 2.87 | –
4 | CC[C@@H]1C(=O)OC[C@@H]1Cc1cncn1C [pilocarpine, reference compound] | – | – | exhibited a salivation promoting effect
5 | CCOc1cc(-c2cc(N(C)CC3(COC)CCCC3)c3[nH]c(-c4cnc(N5CCC(C(=O)O)CC5)cn4)nc3n2)cc(C(F)(F)F)n1 [Example 9, 1-(5-{5-[2-Ethoxy-6-(trifluoromethyl)pyridin-4-yl]-7-[{[1-(methoxymethyl)cyclopentyl]methyl}(methyl)amino]-1H-imidazo[4,5-b]pyridin-2-yl}pyrazin-2-yl)piperidine-4-carboxylic acid] | 36.9 ± 6.43 | 34.73 ± 11.39 | –
6 | COCC1(CN(C)c2cc(-c3cnc(C4CC4)c(C(F)(F)F)c3)nc3nc(-c4cnc(N5CCN(CCC(=O)[O-])C[C@H]5C)cn4)[nH]c23)CCCC1.[Na+] [Example 15, Sodium 3-[(3R)-4-(5-{5-[6-cyclopropyl-5-(trifluoromethyl)pyridin-3-yl]-7-[{[1-(methoxymethyl)cyclopentyl]methyl}(methyl)amino]-1H-imidazo[4,5-b]pyridin-2-yl}pyrazin-2-yl)-3-methylpiperazin-1-yl]propanoate] | 79.3 ± 12.2 | 304.98 ± 58.25 | –
7 | COCC1(CN(C)c2cc(-c3cc(C4CC4)nc(C(F)(F)F)c3)nc3nc(-c4cnc(N5CCN(CCC(=O)[O-])C[C@H]5C)cn4)[nH]c23)CCCCC1.[Na+] [Example 14, Sodium 3-[(3R)-4-(5-{5-[2-cyclopropyl-6-(trifluoromethyl)pyridin-4-yl]-7-[{[1-(methoxymethyl)cyclohexyl]methyl}(methyl)amino]-1H-imidazo[4,5-b]pyridin-2-yl}pyrazin-2-yl)-3-methylpiperazin-1-yl]propanoate] | 65.1 ± 15 | 142.70 ± 23.51 | –
8 | COC[C@@H]1CN(c2cnc(-c3nc4nc(-c5cnc(C6CC6)c(C(F)(F)F)c5)cc(N(C)CC5(COC)CCCCC5)c4[nH]3)cn2)CCN1CCC(=O)O [Example 12, 3-[(2S)-4-(5-{5-[6-Cyclopropyl-5-(trifluoromethyl)pyridin-3-yl]-7-[{[1-(methoxymethyl)cyclohexyl]methyl}(methyl)amino]-1H-imidazo[4,5-b]pyridin-2-yl}pyrazin-2-yl)-2-(methoxymethyl)piperazin-1-yl]propanoic acid] | 49.3 ± 11 | 131.75 ± 28.63 | –
9 | COCC1(CN(C)c2cc(-c3cnc(C4CC4)c(C(F)(F)F)c3)nc3nc(-c4ccc(OC5CCN(CC(=O)O)CC5)cc4F)[nH]c23)CCCC1 [Example 11, [4-(4-{5-[6-Cyclopropyl-5-(trifluoromethyl)pyridin-3-yl]-7-[{[1-(methoxymethyl)cyclopentyl]methyl}(methyl)amino]-1H-imidazo[4,5-b]pyridin-2-yl}-3-fluorophenoxy)piperidin-1-yl]acetic acid] | 30.1 ± 3.79 | 51.85 ± 7.37 | –
10 | CCOCC1(CN(C)c2cc(-c3cnc(C4CC4)c(C(F)(F)F)c3)nc3nc(-c4cnc(N5CCN(CCC(=O)[O-])C[C@H]5C)cn4)[nH]c23)CCCC1.[Na+] [Example 13, sodium 3-[(3R)-4-(5-{5-[6-cyclopropyl-5-(trifluoromethyl)pyridin-3-yl]-7-[{[1-(ethoxymethyl)cyclopentyl]methyl}(methyl)amino]-1H-imidazo [4,5-b]pyridin-2-yl}pyrazin-2-yl)-3-methylpiperazin-1-yl]propanoate] | 17.7 ± 12.7 | 214.40 ± 51.06 | –
11 | COCC1(CN(C)c2cc(-c3cc(F)cc(C(F)(F)F)c3)nc3nc(-c4cnc(N5CCN(CC(=O)O)CC5)cn4)[nH]c23)CCC1 [Example 1, [4-(5-{5-[3-Fluoro-5-(trifluoromethyl)phenyl]-7-[{[1-(methoxymethyl)cyclobutyl]methyl}(methyl)amino]-1H-imidazo[4,5-b]pyridin-2-yl}pyrazin-2-yl)piperazin-1-yl]acetic acid] | 30.4 ± 8.34 | 9.63 ± 2.90 | –
12 | COCC1(CN(C)c2cc(-c3cc(C4CC4)nc(C(F)(F)F)c3)nc3nc(-c4cnc(N5CCC(OCC(=O)O)CC5)cn4)[nH]c23)CCCC1 [Example 5, {[1-(5-{5-[2-Cyclopropyl-6-(trifluoromethyl)pyridin-4-yl]-7-[{[1-(methoxymethyl)cyclopentyl]methyl}(methyl)amino]-1H-imidazo[4,5-b]pyridin-2-yl}pyrazin-2-yl)piperidin-4-yl]oxy}acetic acid] | 33.5 ± 3.39 | 66.30 ± 15.32 | –
13 | CCOc1cc(-c2cc(N(C)CC(C)(C)COC)c3[nH]c(-c4cnc(N5CCC(C(=O)O)CC5)cn4)nc3n2)cc(C(F)(F)F)n1 [Example 7, 1-(5-{5-[2-Ethoxy-6-(trifluoromethyl)pyridin-4-yl]-7-[(3-methoxy-2,2-dimethylpropyl)(methyl)amino]-1H-imidazo[4,5-b]pyridin-2-yl}pyrazin-2-yl)piperidine-4-carboxylic acid] | 25.8 ± 6.38 | 73.40 ± 28.54 | –
14 | CCOc1cc(-c2cc(N(C)CC3(COC)CCC3)c3[nH]c(-c4cnc(N5CCC(C(=O)O)CC5)cn4)nc3n2)cc(C(F)(F)F)n1.Cl.Cl [Example 4, 1-(5-{5-[2-Ethoxy-6-(trifluoromethyl)pyridin-4-yl]-7-[{[1-(methoxymethyl)cyclobutyl]methyl}(methyl)amino]-1H-imidazo[4,5-b]pyridin-2-yl}pyrazin-2-yl)piperidine-4-carboxylic acid dihydrochloride] | 59.3 ± 7.17 | 77.35 ± 16.66 | –
15 | COCC1(CN(C)c2cc(-c3cnc(C4CC4)c(C(F)(F)F)c3)nc3nc(-c4cnc(N5CCN(CCC(=O)O)CC5)cn4)[nH]c23)CCCCC1 [Example 10] | 19.3 ± 5.52 | 329.83 ± 49.36 | –
